According to PubChem BioAssay (NCI):
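Each compound was tested at five concentrations against cells in 96-well plates for 48 hours. TGI: concentration producing complete growth inhibition.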

Columns and labels:
Experiment in all cases: NCI anticancer screen, dose series, 48 h
RPMI-8226 leukemia = tested on: RPMI-8226 leukemia
SK-MEL-28 melanoma = tested on: SK-MEL-28 melanoma
CCRF-CEM leukemia = tested on: CCRF-CEM leukemia
CAKI-1 renal = tested on: CAKI-1 renal
UO-31 renal = tested on: UO-31 renal
MALME-3M melanoma = tested on: MALME-3M melanoma
NCI-H226 lung = tested on: NCI-H226 lung
HCC-2998 colon = tested on: HCC-2998 colon
TK-10 renal = tested on: TK-10 renal
UACC-257 melanoma = tested on: UACC-257 melanoma
OVCAR-3 ovarian = tested on: OVCAR-3 ovarian
SK-MEL-5 melanoma = tested on: SK-MEL-5 melanoma
SK-MEL-2 melanoma = tested on: SK-MEL-2 melanoma
786-0 renal = tested on: 786-0 renal
SF-295 CNS = tested on: SF-295 CNS
SF-268 CNS = tested on: SF-268 CNS
HOP-62 NSCLC = tested on: HOP-62 NSCLC
PC-3 prostate = tested on: PC-3 prostate
NCI-H522 lung = tested on: NCI-H522 lung
MDA-N = tested on: MDA-N
SW-620 colon = tested on: SW-620 colon
K-562 leukemia = tested on: K-562 leukemia
HOP-92 NSCLC = tested on: HOP-92 NSCLC
A498 renal = tested on: A498 renal
ACHN renal = tested on: ACHN renal
NCI-H460 lung = tested on: NCI-H460 lung
MDA-MB-231 breast = tested on: MDA-MB-231 breast
SN12C renal = tested on: SN12C renal
EKVX NSCLC = tested on: EKVX NSCLC
COLO 205 colon = tested on: COLO 205 colon
HCT-116 colon = tested on: HCT-116 colon
NCI/ADR-RES ovarian = tested on: NCI/ADR-RES ovarian
IGROV1 ovarian = tested on: IGROV1 ovarian
SK-OV-3 ovarian = tested on: SK-OV-3 ovarian
MOLT-4 leukemia = tested on: MOLT-4 leukemia
OVCAR-5 ovarian = tested on: OVCAR-5 ovarian
T-47D breast = tested on: T-47D breast
BT-549 breast = tested on: BT-549 breast
A549 NSCLC = tested on: A549 NSCLC
OVCAR-4 ovarian = tested on: OVCAR-4 ovarian
HCT-15 colon = tested on: HCT-15 colon
MDA-MB-435 = tested on: MDA-MB-435
SNB-19 CNS = tested on: SNB-19 CNS
RXF 393 renal = tested on: RXF 393 renal
NCI-H23 lung = tested on: NCI-H23 lung
SNB-75 CNS = tested on: SNB-75 CNS
M14 melanoma = tested on: M14 melanoma
SR leukemia = tested on: SR leukemia
U251 CNS = tested on: U251 CNS
HL-60(TB) leukemia = tested on: HL-60(TB) leukemia
SF-539 CNS = tested on: SF-539 CNS
HS 578T breast = tested on: HS 578T breast
MCF7 breast = tested on: MCF7 breast
OVCAR-8 ovarian = tested on: OVCAR-8 ovarian
HT29 colon = tested on: HT29 colon
LOX IMVI melanoma = tested on: LOX IMVI melanoma
KM12 colon = tested on: KM12 colon
UACC-62 melanoma = tested on: UACC-62 melanoma
DU-145 prostate = tested on: DU-145 prostate

SMILES: O=C1CCc2nc3ncccc3cc2C1
- TGI (RPMI-8226 leukemia): > 100 µM
- TGI (SK-MEL-28 melanoma): > 100 µM
- TGI (CCRF-CEM leukemia): 72.8 µM
- TGI (CAKI-1 renal): > 100 µM
- TGI (UO-31 renal): > 100 µM
- TGI (MALME-3M melanoma): > 100 µM
- TGI (NCI-H226 lung): > 100 µM
- TGI (HCC-2998 colon): > 100 µM
- TGI (TK-10 renal): > 100 µM
- TGI (UACC-257 melanoma): > 100 µM
- TGI (OVCAR-3 ovarian): > 100 µM
- TGI (SK-MEL-5 melanoma): > 100 µM
- TGI (SK-MEL-2 melanoma): > 100 µM
- TGI (786-0 renal): > 100 µM
- TGI (SF-295 CNS): > 100 µM
- TGI (SF-268 CNS): > 100 µM
- TGI (HOP-62 NSCLC): > 100 µM
- TGI (PC-3 prostate): > 100 µM
- TGI (NCI-H522 lung): 55.4 µM
- TGI (MDA-N): > 100 µM
- TGI (SW-620 colon): > 100 µM
- TGI (K-562 leukemia): 97.7 µM
- TGI (HOP-92 NSCLC): > 100 µM
- TGI (A498 renal): > 100 µM
- TGI (ACHN renal): > 100 µM
- TGI (NCI-H460 lung): > 100 µM
- TGI (MDA-MB-231 breast): > 100 µM
- TGI (SN12C renal): > 100 µM
- TGI (EKVX NSCLC): > 100 µM
- TGI (COLO 205 colon): > 100 µM
- TGI (HCT-116 colon): > 100 µM
- TGI (NCI/ADR-RES ovarian): > 100 µM
- TGI (IGROV1 ovarian): > 100 µM
- TGI (SK-OV-3 ovarian): > 100 µM
- TGI (MOLT-4 leukemia): > 100 µM
- TGI (OVCAR-5 ovarian): > 100 µM
- TGI (T-47D breast): > 100 µM
- TGI (BT-549 breast): > 100 µM
- TGI (A549 NSCLC): > 100 µM
- TGI (OVCAR-4 ovarian): > 100 µM
- TGI (HCT-15 colon): > 100 µM
- TGI (MDA-MB-435): 82.3 µM
- TGI (SNB-19 CNS): > 100 µM
- TGI (RXF 393 renal): > 100 µM
- TGI (NCI-H23 lung): > 100 µM
- TGI (SNB-75 CNS): > 100 µM
- TGI (M14 melanoma): > 100 µM

SMILES: CCN=C=NCCCN(C)C
- TGI (RPMI-8226 leukemia): > 100 µM
- TGI (SR leukemia): > 100 µM
- TGI (SK-MEL-28 melanoma): > 100 µM
- TGI (CCRF-CEM leukemia): > 100 µM
- TGI (CAKI-1 renal): > 100 µM
- TGI (U251 CNS): > 100 µM
- TGI (UO-31 renal): > 100 µM
- TGI (MALME-3M melanoma): > 100 µM
- TGI (NCI-H226 lung): > 100 µM
- TGI (HL-60(TB) leukemia): > 100 µM
- TGI (TK-10 renal): > 100 µM
- TGI (UACC-257 melanoma): > 100 µM
- TGI (OVCAR-3 ovarian): > 100 µM
- TGI (SK-MEL-5 melanoma): > 100 µM
- TGI (SK-MEL-2 melanoma): > 100 µM
- TGI (786-0 renal): > 100 µM
- TGI (SF-295 CNS): > 100 µM
- TGI (SF-539 CNS): > 100 µM
- TGI (SF-268 CNS): > 100 µM
- TGI (HOP-62 NSCLC): > 100 µM
- TGI (PC-3 prostate): > 100 µM
- TGI (NCI-H522 lung): > 100 µM
- TGI (MDA-N): > 100 µM
- TGI (SW-620 colon): > 100 µM
- TGI (HS 578T breast): > 100 µM
- TGI (K-562 leukemia): > 100 µM
- TGI (HOP-92 NSCLC): > 100 µM
- TGI (A498 renal): > 100 µM
- TGI (ACHN renal): > 100 µM
- TGI (NCI-H460 lung): > 100 µM
- TGI (MDA-MB-231 breast): > 100 µM
- TGI (SN12C renal): > 100 µM
- TGI (EKVX NSCLC): > 100 µM
- TGI (COLO 205 colon): > 100 µM
- TGI (MCF7 breast): > 100 µM
- TGI (HCT-116 colon): > 100 µM
- TGI (NCI/ADR-RES ovarian): > 100 µM
- TGI (IGROV1 ovarian): > 100 µM
- TGI (SK-OV-3 ovarian): > 100 µM
- TGI (MOLT-4 leukemia): > 100 µM
- TGI (OVCAR-5 ovarian): > 100 µM
- TGI (BT-549 breast): > 100 µM
- TGI (A549 NSCLC): > 100 µM
- TGI (OVCAR-8 ovarian): > 100 µM
- TGI (OVCAR-4 ovarian): > 100 µM
- TGI (HCT-15 colon): > 100 µM
- TGI (MDA-MB-435): > 100 µM
- TGI (SNB-19 CNS): > 100 µM
- TGI (RXF 393 renal): > 100 µM
- TGI (HT29 colon): > 100 µM
- TGI (NCI-H23 lung): > 100 µM
- TGI (LOX IMVI melanoma): > 100 µM
- TGI (KM12 colon): > 100 µM
- TGI (UACC-62 melanoma): > 100 µM
- TGI (SNB-75 CNS): > 100 µM
- TGI (M14 melanoma): > 100 µM
- TGI (DU-145 prostate): > 100 µM
